# Measurements reported in patent US12285426B2, “Combination serotonin specific reuptake inhibitor and serotonin 1A receptor partial agonist for reducing L-DOPA-induced dyskinesia” (The Research Foundation for The State University of new York, priority 2018, dated 2025).
# What was measured:
# dyskinesia = details: human and animal studies; cited from earlier work
# [1] = system: L-DOPA-induced dyskinesia; experiment: FIG. 24: LID development over 14 days, vilazodone and/or amantadine; format: in vivo; details: for ALO AIMs, LID development: over 14 days
# Text: FIGS. 24B-24E show percent intact+S.E.M. over time for the respective groups.
# [2] = system: L-DOPA-induced dyskinesia; experiment: FIG. 23A-23C: ALO AIMs, vilazodone and/or amantadine with L-DOPA; details: for ALO AIMs, combined amantadine and vilazodone: VZD 2.5 mg/kg, AMA 40 mg/kg, L-DOPA
# [3] = cited from earlier work
# [4] = system: lesion-induced motor deficits; experiment: FIG. 23D: % intact stepping; format: in vivo; details: L-DOPA alone or with AMA 40 mg/kg and/or VZD 2.5 mg/kg
# TRPV1 ion channel = TRPV1 ion channel (Homo sapiens, UniProt Q8NER1); details: depending on the pharmacological assay; cited from earlier work
# Chain of TRPV1 ion channel (Q8NER1 whole entry): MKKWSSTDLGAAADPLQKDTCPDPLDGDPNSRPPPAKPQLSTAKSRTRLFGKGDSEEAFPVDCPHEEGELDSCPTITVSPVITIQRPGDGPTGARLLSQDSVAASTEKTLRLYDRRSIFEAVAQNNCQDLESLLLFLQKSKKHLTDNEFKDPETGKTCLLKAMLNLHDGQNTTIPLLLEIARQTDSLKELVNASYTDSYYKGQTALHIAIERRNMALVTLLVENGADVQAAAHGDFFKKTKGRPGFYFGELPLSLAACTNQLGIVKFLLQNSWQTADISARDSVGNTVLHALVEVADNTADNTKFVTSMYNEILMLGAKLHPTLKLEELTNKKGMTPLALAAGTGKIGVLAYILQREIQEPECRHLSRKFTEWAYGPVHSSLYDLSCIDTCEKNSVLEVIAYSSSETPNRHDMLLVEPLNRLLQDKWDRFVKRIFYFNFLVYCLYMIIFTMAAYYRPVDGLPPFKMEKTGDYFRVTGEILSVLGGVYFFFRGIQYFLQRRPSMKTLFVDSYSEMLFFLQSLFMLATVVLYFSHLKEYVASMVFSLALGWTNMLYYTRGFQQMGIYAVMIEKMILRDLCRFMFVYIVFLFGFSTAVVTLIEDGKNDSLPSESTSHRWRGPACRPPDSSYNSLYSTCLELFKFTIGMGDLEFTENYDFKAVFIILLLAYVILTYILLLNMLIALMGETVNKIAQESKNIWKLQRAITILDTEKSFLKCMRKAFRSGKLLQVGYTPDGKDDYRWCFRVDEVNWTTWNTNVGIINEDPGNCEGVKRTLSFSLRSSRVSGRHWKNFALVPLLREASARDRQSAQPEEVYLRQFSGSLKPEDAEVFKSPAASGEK
# [5] = system: 6-OHDA-lesioned rats, forelimb akinesia; experiment: Experiment 2: forepaw adjusting steps (FAS); format: in vivo, rat
# Text: (§1) Forepaw adjusting steps (FAS): The FAS test is a measure of forelimb akinesia performed according to previous protocols (Bishop et al., 2012; Chang et al., 1999). Data are presented as mean percent intact stepping where the sum of the total steps with the lesioned forepaw was divided by the total steps with the unlesioned forepaw multiplied by 100. Lower percent intact scores indicate greater forelimb akinesia. Prior to baseline, rats received 2 acclimation periods. On-treatment FAS was performed 60 min post-L-DOPA.
# DAT = DAT (Homo sapiens, UniProt Q01959); details: cited from earlier work
# Chain of DAT (Q01959 whole entry, species assumed): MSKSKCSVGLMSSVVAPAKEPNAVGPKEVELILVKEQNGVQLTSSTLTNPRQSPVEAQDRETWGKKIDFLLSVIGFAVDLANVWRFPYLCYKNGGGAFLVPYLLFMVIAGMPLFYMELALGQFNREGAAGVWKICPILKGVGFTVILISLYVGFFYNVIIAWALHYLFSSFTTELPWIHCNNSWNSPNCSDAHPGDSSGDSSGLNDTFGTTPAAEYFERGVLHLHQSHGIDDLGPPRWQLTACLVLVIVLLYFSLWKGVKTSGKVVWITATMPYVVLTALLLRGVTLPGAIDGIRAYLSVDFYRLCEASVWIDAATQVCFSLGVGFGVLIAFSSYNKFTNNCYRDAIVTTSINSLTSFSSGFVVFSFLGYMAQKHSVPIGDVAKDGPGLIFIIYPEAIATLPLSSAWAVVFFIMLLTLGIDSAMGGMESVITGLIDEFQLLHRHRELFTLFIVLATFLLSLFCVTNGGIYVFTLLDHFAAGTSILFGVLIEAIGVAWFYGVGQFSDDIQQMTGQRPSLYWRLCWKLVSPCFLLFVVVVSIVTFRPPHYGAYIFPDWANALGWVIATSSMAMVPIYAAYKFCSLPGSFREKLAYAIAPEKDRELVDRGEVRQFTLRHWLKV
# [6] = system: L-DOPA-primed 6-OHDA-lesioned rats; 5-HT1BR; experiment: Experiment 3: AIMs with 5-HT1BR antagonist NAS-181; format: in vivo, rat; details: VZD 10 mg/kg, NAS-181 3.0 mg/kg, LD 6 mg/kg s.c.
# Description: All 6-OHDA-lesioned rats (n=17) were tested on the FAS prior to treatment regimens to establish baseline motor performance. Three-weeks post-surgery, all rats were primed with L-DOPA (6 mg/kg, s.c.) for 14 days.
# Beginning 10 min post-treatment, a trained and blinded observer assigned a severity score (0-4) to each of the ALO AIMs based on 1 min ratings every 10 min for 3 h: 0, not present; 1, present from 1-29 s; 2, present 30-59s; 3, present all 60 s, but interruptible by a cylinder tap; 4, present 60 s and not interruptible by a cylinder tap.
# [7] = target: T1, 5-HT1A receptor expressed in SF9 cells (Homo sapiens, UniProt P08908); details: cited from earlier work
# T1 construct: expressed in transfected cells; host or cells: SF9 cells
# T1 sequence (P08908 1-422): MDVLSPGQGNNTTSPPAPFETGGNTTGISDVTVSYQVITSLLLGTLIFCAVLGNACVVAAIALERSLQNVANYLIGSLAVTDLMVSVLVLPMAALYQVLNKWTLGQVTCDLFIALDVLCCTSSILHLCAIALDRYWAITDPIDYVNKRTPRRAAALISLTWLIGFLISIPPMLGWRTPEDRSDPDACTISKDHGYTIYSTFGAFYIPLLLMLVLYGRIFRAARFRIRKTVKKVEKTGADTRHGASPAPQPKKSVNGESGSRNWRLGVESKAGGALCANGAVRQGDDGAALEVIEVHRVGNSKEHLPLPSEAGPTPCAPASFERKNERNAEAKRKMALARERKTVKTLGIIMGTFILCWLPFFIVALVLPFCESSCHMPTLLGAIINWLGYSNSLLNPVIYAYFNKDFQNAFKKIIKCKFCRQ
# [8] = system: extracellular levels of norepinephrine or dopamine; details: 1 and 10 mg/kg; cited from earlier work
# NET = NET (Homo sapiens, UniProt P23975); details: cited from earlier work
# Chain of NET (P23975 whole entry): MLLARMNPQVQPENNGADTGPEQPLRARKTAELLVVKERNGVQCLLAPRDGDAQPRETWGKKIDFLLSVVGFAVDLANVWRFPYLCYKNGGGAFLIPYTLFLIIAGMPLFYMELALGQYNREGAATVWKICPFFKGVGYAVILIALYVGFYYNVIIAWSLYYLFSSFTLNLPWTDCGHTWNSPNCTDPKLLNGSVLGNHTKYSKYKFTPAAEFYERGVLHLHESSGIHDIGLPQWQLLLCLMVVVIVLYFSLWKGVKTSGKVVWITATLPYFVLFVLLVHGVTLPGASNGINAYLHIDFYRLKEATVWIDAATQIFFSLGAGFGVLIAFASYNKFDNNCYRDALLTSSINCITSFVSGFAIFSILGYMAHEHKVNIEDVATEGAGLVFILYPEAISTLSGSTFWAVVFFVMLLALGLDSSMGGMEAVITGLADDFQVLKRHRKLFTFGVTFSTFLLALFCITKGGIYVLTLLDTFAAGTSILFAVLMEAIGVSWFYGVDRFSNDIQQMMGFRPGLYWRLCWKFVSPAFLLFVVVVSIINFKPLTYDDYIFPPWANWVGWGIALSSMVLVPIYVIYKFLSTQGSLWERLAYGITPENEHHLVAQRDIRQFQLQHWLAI
# [9] = system: 6-OHDA-lesioned rats, forelimb akinesia; experiment: Example 2: stepping test; format: in vivo, rat; details: 60 minutes post L-DOPA
# Description: 6-OHDA-induced dopaminergic lesions: Adult male Sprague-Dawley rats were randomly assigned to groups receiving either a 6-OHDA or sham lesion. All rats received desipramine (10 mg/kg i.p.) 30 min prior to surgery to prevent the lesioning of norepinephrine neurons by 6-OHDA. A single injection of 6-OHDA (8 μg of 6-OHDA free base in 4 p of 0.1% ascorbic acid) was delivered into the right medial forebrain bundle (coordinates taken from bregma: −4.3 mm AP, 1.6 mm ML, −8.3 mm DV). The same experimental treatment was performed for the sham-operated rats using vehicle (4 μl of 0.1% ascorbic acid). A standard stepping test was used to evaluate the effectiveness of the 6-OHDA lesion.
# Rats were treated for 5 consecutive days/week (Mon-Fri), for 2 weeks. On the second day of each week, stepping tests were performed prior to drug administration, and 60 minutes post L-DOPA treatment.
# [10] = system: striatum and DRN monoamines and metabolites; experiment: Experiment 1: HPLC of striatal and dorsal raphe tissue monoamines; format: in vivo, rat
# Description: Rats (n=30) were rendered hemi-parkinsonian with unilateral 6-OHDA lesions of the left MFB. Three-weeks post-lesion, animals were divided into 2 equally disabled groups, measured by forepaw adjusting steps (FAS, see below). One group (n=8) began receiving 14 days of daily vehicle (0.9% NaCl+0.1% ascorbic acid) and the other (n=22) received L-DOPA methyl ester (6 mg/kg, s.c.; Sigma)+DL-serine 2-(2,3,4-trihydroxybenzyl) hydrazine hydrochloride (benserazide; 15 mg/kg, s.c.; Sigma), hereafter L-DOPA, dissolved in vehicle at a volume of 1 mL/kg. […] Thereafter, L-DOPA-treated animals with Axial, Limb, and Orolingual (ALO) AIMs (see description below, FIG. 1A)<30 were excluded from the study and the remaining L-DOPA-treated animals were divided into 3 equally dyskinetic groups. […] Daily injections continued over 23 days, with behavior assayed on Days 15, 22, 29, and 36. On Day 37, animals were killed 60 min post-treatment. Left and right dorsal striata and DRN were dissected and flash frozen for HPLC analyses.
# High-performance liquid chromatography (HPLC): HPLC, a method for semi-automated catecholamine analysis with coulometric detection, was performed according to prior protocols (Bishop et al., 2009) to determine the tissue levels of monoamines, their metabolites, and monoamine turnover in the striatum and DRN. The limit of detection for DOPAC, DA, 5-hydroxyindoleacetic acid (5-HIAA) and 5-HT was 10^−10 M. Final oxidation current values were plotted on a standard curve from 10^−6 M to 10^−9 M and expressed as pg of monoamine or metabolite per mg of tissue unless otherwise specified.
# On the final treatment day, animals were sacrificed 60 min post-LD treatment and left and right striata and dorsal raphe nucleus (DRN) were collected for high performance liquid chromatography (HPLC) analysis. Values (means±standard mean error) are expressed as picograms of monoamine or metabolite per milligram wet tissue weight. Turnover estimates were determined by dividing a subject's metabolite value by its corresponding monoamine.
# [11] = system: 6-OHDA-lesioned rats, L-DOPA-induced dyskinesia; experiment: Experiment 1: AIMs, established LID in L-DOPA-primed hemi-parkinsonian rats; format: in vivo, rat
# [12] = system: striatal c-Fos, PPD, PPE, PPT, 5-HT1AR mRNA; experiment: Experiment 2: real-time RT-PCR of striatal gene expression
# [13] = system: 6-OHDA-lesioned rats, forelimb akinesia; experiment: Experiment 1: forepaw adjusting steps (FAS); format: in vivo, rat
# Text: as §1, with “Conti et al., 2014). […] Forepaw” for “Forepaw”
# [14] = system: MSNs of dyskinetic 6-OHDA-lesioned rats; experiment: Example 2: electrophysiology of striatal MSNs; format: in vivo, rat; details: co-administration with L-DOPA
# hemi-parkinsonian rats = experiment: Side effects during chronic Vilazodone treatment; format: in vivo, rat
# [15] = system: L-DOPA-primed 6-OHDA-lesioned rats; 5-HT1AR
# [16] = system: 6-OHDA-lesioned rats, L-DOPA-induced dyskinesias; experiment: Example 2: LIDs scoring in unilateral 6-OHDA-lesioned rats; format: in vivo, rat; details: vilazodone 10 mg/kg or escitalopram 12.5 mg/kg + L-DOPA 5 mg/kg, 2 weeks
# Description: 6-OHDA-induced dopaminergic lesions: Adult male Sprague-Dawley rats were randomly assigned to groups receiving either a 6-OHDA or sham lesion. […] [[…] 2019]. […] Rats were treated for 5 consecutive days/week (Mon-Fri), for 2 weeks. […] All rats were evaluated three times per week for the presence of L-DOPA-induced dyskinesias (LIDs) (Wed-Fri) and once for the stepping test (Tue). […] Scores were given over 1 min epochs and classified as axial, limb, orolingual and locomotive. […] The severity of each LID was scored using a standard scale. Each dyskinetic behavior was given an intensity and frequency score, which were then multiplied. The average sum of the products of each LID was determined in each animal.
# [17] = system: 6-OHDA-lesioned rats, L-DOPA-induced dyskinesia; experiment: Experiment 2: AIMs, LID development in L-DOPA-naive hemi-parkinsonian rats; format: in vivo, rat; details: VZD 10 or 20 mg/kg + LD 6 mg/kg, treatment naive, 3 weeks
# SERT = SERT (Homo sapiens, UniProt P31645); details: clinically effective dose range 5-20 mg/day; cited from earlier work
# Chain of SERT (P31645 whole entry, species assumed): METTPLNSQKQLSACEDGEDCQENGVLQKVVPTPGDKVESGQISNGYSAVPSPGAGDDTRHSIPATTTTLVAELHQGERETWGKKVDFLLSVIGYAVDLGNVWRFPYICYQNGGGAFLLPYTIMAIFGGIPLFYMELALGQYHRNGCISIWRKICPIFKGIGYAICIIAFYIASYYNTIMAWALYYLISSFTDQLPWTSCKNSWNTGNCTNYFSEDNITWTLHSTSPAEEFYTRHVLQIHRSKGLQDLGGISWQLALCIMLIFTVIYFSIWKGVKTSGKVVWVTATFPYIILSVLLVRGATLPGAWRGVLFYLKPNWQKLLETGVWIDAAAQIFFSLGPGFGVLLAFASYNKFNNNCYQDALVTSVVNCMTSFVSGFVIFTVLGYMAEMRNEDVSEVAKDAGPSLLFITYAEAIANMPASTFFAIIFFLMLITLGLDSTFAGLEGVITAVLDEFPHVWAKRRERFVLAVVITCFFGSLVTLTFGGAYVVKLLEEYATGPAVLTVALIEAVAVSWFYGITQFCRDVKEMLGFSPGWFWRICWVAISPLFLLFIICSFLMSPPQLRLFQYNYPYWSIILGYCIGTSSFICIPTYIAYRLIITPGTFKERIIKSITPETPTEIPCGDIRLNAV
smiles,measurement,setting,value
"NC12CC3CC(CC(C3)C1)C2 [Amantadine, 1-adamantanamine]",EC50 (plasma level reducing dyskinesia by 50%),dyskinesia,"1,400 ng/mL"
same,"ALO AIMs, LID development",[1],"initially reduced AIMs, but this suppression diminished over time"
same,side effects,[2]; AMA 60 mg/kg,appeared to produce side effects
same,ALO AIMs,"[2]; AMA 20, 40, 60 mg/kg + L-DOPA",did not appear to alter AIMs
same,"ALO AIMs, combined amantadine and vilazodone",[2],counteracted by Amantadine
same,peak plasma concentrations,[3]; IR 100 mg twice a day,"< 1,000 ng/mL"
same,half-life,[3]; in vivo,around 17 hours
same,maximum plasma concentration,[3]; single dose 100 mg,around 220 ng/mL
same,% intact stepping,[4],may reduce improvements
Oc1cc2c(cc1O)CN(C(=S)NCCc1ccc(Cl)cc1)CCC2 [Capsazepine],IC50,TRPV1 ion channel,nanomolar to low micromolar range
"Cl.N#Cc1ccc2[nH]cc(CCCCN3CCN(c4ccc5oc(C(N)=O)cc5c4)CC3)c2c1 [Vilazodone, 5-{4-[4-(5-cyano-3-indolyl)-butyl]-1-piperazinyl}-benzofuran-2-carboxamide hydrochloride]",FAS vs baseline,[5]; LD 6 mg/kg alone or with VZD,"significant increases in stepping, relative to baseline, from Day 8 thereafter"
same,FAS vs VZD(0)+LD(6),"[5]; VZD 10 mg/kg + LD 6 mg/kg, by Day 15",significantly enhanced the pro-motor effects of L-DOPA
same,IC50,DAT,0.037 µM
same,ALO AIMs,[6],significantly reduced ALO AIMs
same,increase of [35S]GTPyS binding compared to vehicle,[7],fourfold
same,change in extracellular levels of norepinephrine or dopamine,[8],no change
same,"ALO AIMs, LID development",[1],persistently reduced AIMs
same,"reduction of development and expression of LID, compared with Amantadine",[1]; validated rodent model,more effective than Amantadine
same,IC50,NET,0.056 µM
same,"ALO AIMs, combined amantadine and vilazodone",[2],continued to reduced AIMs
same,ALO AIMs,[2]; VZD 5 mg/kg + L-DOPA,moderately
same,ALO AIMs,[2]; VZD 1 and 2.5 mg/kg + L-DOPA,modestly reduced AIMs
same,forelimb akinesia / L-DOPA therapeutic (prokinetic) efficacy,[9],no effects on forelimb akinesia or L-DOPA-induced prokinetic effects
same,5-HIAA,"[10]; Dorsal Raphe Nucleus, VZD(10)+LD(6) mg/kg s.c.",12541 pg/mg wet tissue weight
same,5-HT Turnover,"[10]; Striatum Lesion, VZD(10)+LD(6) mg/kg s.c.",8.38
same,DRN 5-HT,[10]; VZD 10 mg/kg + LD,significantly increased DRN 5-HT
same,striatal 5-HIAA,[10]; VZD 20 mg/kg,attenuated 5-HIAA compared to all other treatments
same,striatal 5-HT Turnover,[10]; VZD 20 mg/kg vs VZD(0)+LD(0),reduced 5-HT Turnover
same,DRN DA Turnover,[10]; VZD 10 or 20 mg/kg + LD,DA Turnover was attenuated
same,DRN 5-HT Turnover,[10]; both doses VZD + LD,attenuated 5-HT Turnover
same,DA in lesioned striatum (planned comparisons),[10]; both doses VZD vs VZD vehicle groups,significantly increased DA in the lesioned striatum
same,"ALO AIMs, established LID","[11]; VZD 10 or 20 mg/kg s.c. 5 min before LD 6 mg/kg, vs VZD(0)+LD(6), from first day, persisted throughout treatment",dramatically reduced AIMs
same,"anti-LID efficacy, 20 mg/kg vs 10 mg/kg",[11]; dissipated after the first week,initially had greater anti-LID efficacy than the lower dose
same,striatal PPE mRNA,"[12]; lesioned striata, LD 6 mg/kg, VZD 20 mg/kg, day 23","modestly, though significantly reduced"
same,striatal PPD mRNA,"[12]; lesioned striata, LD 6 mg/kg, VZD 10/20 mg/kg, day 23",dose-dependently attenuated
same,striatal c-Fos mRNA,"[12]; lesioned striata, LD 6 mg/kg, VZD 10 or 20 mg/kg, day 23",diminished by either dose
same,striatal 5-HT1AR mRNA,"[12]; rat, in vivo",did not affect striatal 5-HT1AR mRNA
same,striatal PPT mRNA,"[12]; rat, in vivo",reduced striatal PPT
same,FAS motor performance vs baseline,[13]; LD 6 mg/kg alone or with VZD 10/20 mg/kg,emerged 7 days later
same,FAS stepping vs VZD(0)+LD(6),"[13]; VZD 20 mg/kg, Day 29, transient",depressed stepping
same,spike probability and onset latency,[14],normalizes spike probability and onset latency
same,"side effects, like 5-HT syndrome",hemi-parkinsonian rats,weren't observed at any time point
same,LID duration (time course),[15]; VZD 10 mg/kg + LD 6 mg/kg,little effect on LID duration
same,peak dyskinesia (time course),[15]; VZD 10 mg/kg + LD 6 mg/kg,reduced peak dyskinesia
same,summed ALO AIMs,"[15]; VZD 10 mg/kg, WAY 0.5 mg/kg, LD 6 mg/kg s.c.",significantly reduced ALO AIMs
same,LIDs severity,[16],most significant effect on attenuating LIDs
same,"ALO AIMs, LID development",[17],significantly attenuated the development of LID
Cc1ccc(Sc2ccccc2N2CCNCC2)c(C)c1 [Vortioxetine],SERT occupancy,SERT,50 to 80%
